Residues, ends and D or L forms follow the SMILES beside them.
Molecular target: T1, hsortilin (Homo sapiens, UniProt Q99523)
T1 construct: Human sortilin (hsortilin) (Ser78-Asn755) with C-terminal 6-His tag; purchased R&D Systems, Inc. (Minneapolis, Minn.)
T1 sequence (Q99523 78-755): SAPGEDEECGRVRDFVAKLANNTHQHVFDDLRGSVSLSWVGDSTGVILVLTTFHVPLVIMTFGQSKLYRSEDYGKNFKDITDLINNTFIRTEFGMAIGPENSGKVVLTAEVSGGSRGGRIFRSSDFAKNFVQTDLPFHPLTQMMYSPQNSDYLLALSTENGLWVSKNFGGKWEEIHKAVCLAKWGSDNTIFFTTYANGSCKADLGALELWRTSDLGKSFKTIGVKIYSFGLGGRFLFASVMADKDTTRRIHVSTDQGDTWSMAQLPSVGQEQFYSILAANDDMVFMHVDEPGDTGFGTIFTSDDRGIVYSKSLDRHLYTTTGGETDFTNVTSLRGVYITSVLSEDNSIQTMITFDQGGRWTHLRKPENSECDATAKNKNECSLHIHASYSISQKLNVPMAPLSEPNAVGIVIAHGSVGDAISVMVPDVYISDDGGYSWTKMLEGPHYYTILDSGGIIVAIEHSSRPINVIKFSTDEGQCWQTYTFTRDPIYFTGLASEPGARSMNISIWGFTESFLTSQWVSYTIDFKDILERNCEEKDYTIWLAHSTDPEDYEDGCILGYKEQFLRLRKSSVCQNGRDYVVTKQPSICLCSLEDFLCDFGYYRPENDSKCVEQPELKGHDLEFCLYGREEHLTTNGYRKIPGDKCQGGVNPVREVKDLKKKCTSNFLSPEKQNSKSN
Assay: Surface plasmon resonance on hsortilin immobilized on CM7 chips (Example 2)
Type: binding
Description: Surface plasmon resonance (SPR) measurements were performed on a Biacore T200 instrument equipped with two separate CM7 sensor chips, one with about 20,000 response units (RU) and another with about 27,000 RU of hsortilin covalently immobilized. […] For all other SPR injections, regeneration consisted of injections of running buffer alone. GE BIAcore T200 evaluation software version 3.0 (BIAevaluate) was used to analyze and export results. […] PIP3 containing nanodiscs were flowed at 2:1 dilutions to obtain kinetic data fitted using about 27,000 RU CM7 surface. Kinetic fit generated with BIAevaluate and local Rmax using Langmuir 1:1 binding model exported from BIAevaluate to Microsoft Excel 2016 with fit indicated by the black line.

Kd (C-term NT alone, steady state) [nM] | IC50 (100 nM NT, read-out: IC50 for inhibition of full length NT binding to sortilin) [nM] | SMILES
138 |  | CC[C@H](C)[C@H](NC(=O)[C@H](Cc1ccc(O)cc1)NC(=O)[C@@H]1CCCN1)C(=O)N[C@@H](CC(C)C)C(=O)O [C-term NT, P—Y-I-L, reference compound] (H-PYIL-OH; N-terminus and C-terminus assumed)
 | ~750 | CCCC(=O)OC[C@H](COP(=O)(O)O[C@H]1[C@H](O)[C@@H](OP(=O)(O)O)[C@H](OP(=O)(O)O)[C@@H](OP(=O)(O)O)[C@H]1O)OC(=O)CCC [diC4-PIP3, dibutanoyl PIP3, reference compound]

Source: patent US10478421B1, “Sortilin binding compounds, formulations, and uses thereof” (University of Florida, priority 2016, dated 2019)
